# Reference: US6855726B1, “Quinolones as serine protease inhibitors” (Warner-Lambert Company LLC, priority 1998, dated 2005)
# B1: Antistasin: a potent inhibitor of blood coagulation factor Xa, from the Mexican leech Haementeria officinalis (protein, UniProt P15358 18-136, looked up)
# Antistasin: QGPFGPGCEEAGCPEGSACNIITDRCTCSGVRCRMHCPHGFQRSRYGCEFCKCRLEPMKATCDISECPEGMMCSRLTNKCDCKIDINCRKTCPNGLKRDKLGCEYCECRPKRKLIPRLS
# Legend:
# [1] = rat arteriovenous shunt and venous stasis models; Wong et al. 1996; cited from earlier work
# human trypsin = human trypsin (Homo sapiens, UniProt P07477); assay: Determination of trypsin IC50 (chromogenic substrate S2222); format: biochemical
# Description: The ability of compounds to act as inhibitors of human trypsin catalytic activity is assessed by determination of that concentration of test substance that inhibits by 50% (IC50) the ability of human trypsin to cleave the chromogenic substrate S2222 (N-Bz-L-Ile-L-Glu-L-Gly-L-Arg-p-nitroanilide. HCl, DiaPharma). Typically, 145 μL human trypsin (0.5 nM final) in 10 mM HEPES, 150 mM NaCl, 0.1% BSA, and 5 μL of the test substance in DMSO (2% final) are incubated for 60 minutes at room temperature. Following preheating to 37° C. for 5 minutes, to this mixture is added 100 μL of S2222 in HBSA buffer (100 μM final), and the velocity of S2222 hydrolysis is determined at 37° C. by measuring the optical density at OD405 nm every 10 seconds over 5 minutes using a ThermoMax® Kinetic Microplate Reader.
# human factor Xa = molecular target: T1, human factor Xa (Homo sapiens, UniProt P00742); assay: Determination of factor Xa IC50 (chromogenic substrate S2765); format: biochemical
# T1 construct: human factor Xa (1 nM final, Enzyme Research Laboratories); purchased Enzyme Research Laboratories
# T1 sequence (P00742 235-488 limits assumed): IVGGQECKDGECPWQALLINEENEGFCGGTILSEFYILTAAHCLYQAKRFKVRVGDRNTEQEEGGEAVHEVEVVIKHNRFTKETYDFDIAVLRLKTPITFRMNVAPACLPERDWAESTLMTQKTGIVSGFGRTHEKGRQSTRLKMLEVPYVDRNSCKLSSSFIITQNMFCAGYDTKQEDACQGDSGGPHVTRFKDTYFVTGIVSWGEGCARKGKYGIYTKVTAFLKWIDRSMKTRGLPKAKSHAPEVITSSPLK
# T1 sequence (P00742 41-179 partner limits assumed): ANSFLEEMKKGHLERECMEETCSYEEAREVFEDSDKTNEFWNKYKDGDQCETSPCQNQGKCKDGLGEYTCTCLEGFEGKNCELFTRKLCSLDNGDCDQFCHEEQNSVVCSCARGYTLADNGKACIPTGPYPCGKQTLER
# Description: The ability of compounds to act as inhibitors of human factor Xa catalytic activity is assessed by determination of that concentration of test substance that inhibits by 50% (IC50) the ability of human factor Xa to cleave the chromogenic substrate S2765 (N-CBz-D-Arg-L-Gly-L-Arg-p-nitroanilide. 2HCl, DiaPharma). Typically, 145 μL human factor Xa (1 nM final, Enzyme Research Laboratories) in 10 mM HEPES, 150 mM NaCl, 0.1% BSA, pH 7.4 (HBSA buffer) and 5 μL of test substance in DMSO (2% final) are incubated for 60 minutes at room temperature. Following preheating to 37° C. for 5 minutes, to this mixture is added […] of S2765 in HBSA buffer. The velocity of S2765 hydrolysis is determined at 37° C. by measuring the initial rate of change of the optical density at OD405 nm every 10 seconds for 5 minutes using a ThermoMax®D Kinetic Microplate Reader.
# human thrombin = molecular target: T2, human thrombin (Homo sapiens, UniProt P00734); assay: Determination of thrombin IC50 (chromogenic substrate Chromozym TH); format: biochemical
# T2 construct: purchased Enzyme Research Laboratories
# Description: The ability of compounds to act as inhibitors of human thrombin catalytic activity is assessed by determination of that concentration of test substance that inhibits by 50% (IC50) the ability of human thrombin to cleave the chromogenic substrate Chromozym TH (Tosyl-Gly-Pro-Arg-pNA*Ac, Boehringer Mannheim). Typically, 145 μL human thrombin (0.75 nM, Enzyme Research Laboratories) in a HPB buffer (10 mM HEPES, 100 mM NaCl, 0.05% BSA, 0.1% PEG-8000, pH 7.4) and 5 μL of test substance in DMSO (2% final) are incubated for 60 minutes at room temperature. Following preheating to 37° C. for 5 minutes, to this mixture is added 100 μL of Chromozym TH in HPB buffer. The velocity of Chromozym TH hydrolysis is determined at 37° C. by measuring the initial rate of change of the optical density at OD405 nm every 10 seconds for 5 minutes using a ThermoMax® Kinetic Microplate Reader.
# [2] = dog, adjunct to recombinant tissue plasminogen activator; Mellott et al. 1993; cited from earlier work
# [3] = canine coronary artery, electrolytic lesion model; Lynch et al., Schaffer et al.; cited from earlier work
# [4] = rabbit venous thrombosis; Fioravanti et al. 1993; cited from earlier work
# [5] = various models of arterial and venous thrombosis; Lapatto et al. 1997; cited from earlier work
molecule,measurement,setting,value
CC(=N)N1CC[C@H](Oc2ccc([C@H](Cc3ccc4ccc(C(=N)N)cc4c3)C(=O)O)cc2)C1 [DX9065a],inhibition of thrombus formation,[1],inhibition of thrombus formation was achieved at doses that had little effect on APTT
"C[C@@H]1CCC[C@H](C)N1CCCCCN1C(=O)C(c2cc(C(=N)N)ccc2O)Cc2ccccc21 (stereo partly drawn) [Example 2, 3-(1-5-[(2R,6S)-2,6-dimethyltetrahydro-1(2H)-pyridinyl]pentyl-2-oxo-1,2,3,4-tetrahydro-3-quinolinyl)-4-hydroxybenzenecarboximidamide]",IC50,human trypsin,562 nM
same,IC50,human factor Xa,20 nM
same,IC50,human thrombin,1140 nM
"rTAP: recombinant tick anticoagulant peptide, a protein or polypeptide factor Xa inhibitor (YNRLCIKPRDWIDECDSNEGGERAYFRNGKGGCDSFWICPEDHTGADYYSSYRDCFNACI; UniProt P17726 1-60, looked up)",clot lysis and acute reocclusion,[2],accelerate the recombinant tissue plasminogen activator mediated clot lysis and prevent acute reocclusion
same,thrombus mass and time to occlusion,[3],reduce thrombus mass and time to occlusion
same,fibrin deposition,[4],reduce fibrin deposition
B1,antithrombotic activity,[5],displays antithrombotic activity
